Assay results taken from patent publication US11793880B2, “Conjugates of quaternized tubulysin compounds” (Seagen Inc., priority 2015, dated 2023).

Tests used:
Format in all cases: cell-based
L428, MDR + HL = test: In vitro assays - tubulysin free drugs, CellTiter-Glo growth inhibition; details: Homo sapiens, L-428, 96 h, Table 2; free drug, 96 hour exposure
Description: (§1) In vitro assays. Cells cultured in log-phase growth were seeded for 24 h in 96-well plates containing 150 μL RPMI 1640 supplemented with 20% FBS. Serial dilutions of antibody-drug conjugates in cell culture media were prepared at 4× working concentrations; 50 μL of each dilution was added to the 96-well plates. Following addition of ADC, cells were incubated with test articles for 4 d at 37° C. After 96 h, growth inhibition was assessed by CellTiter-Glo® (Promega, Madison, WI) and luminescence was measured on a plate reader. The IC50 value, determined in triplicate, is defined here as the concentration that results in a 50% reduction in cell growth relative to untreated controls.
(§2) In vitro assays—tubulysin free drugs. Cells were treated for 96 hours with tubulysin ether analogs (40-42) or tubulysin M (7), then assessed for viability as described in the methods.
(§3) The tubulysin ester analogs (133-137) and unsaturated ether analogs (176-179) were tested in vitro for potency relative to tubulysin M (7), following a 96 hour exposure. As shown by IC50 values (nM) of Table 2, Tubulysin esters 133-136 performed comparably to tubulysin M, with similar potencies across of the cell lines.

Karpas299, ALCL = test: as above; details: Homo sapiens, KARPAS-299, 96 h, Table 2; free drug, 96 hour exposure
Description: as §1, §2, §3

HL60/RV, MDR + AML = test: as above; details: Homo sapiens, HL-60, 96 h, 96 hour exposure
Description: as §1, §2, §3
(§4) A series of analogues of the ethyl ether tubulysin compound TubOEt (41) were synthesized on solid phase lanterns that maintain the ethyl ether substitution, while either varying the residue at the Ile position (203-215) or the Mep position (216-221). Following cleavage from the solid phase, the analogues were obtained in >85% purity and tested without further purification. The compounds were tested in vitro for potency relative to a sample of TubOEt synthesized in parallel on a lantern (41-lantern), following a 96 hour exposure, with IC5O values expressed in nM (Table 3). While in many cases an attenuation in activity was observed relative to 41-lantern, some well-tolerated substitutions were found. […] While this stereochemical preference is not observed when Ile is replaced with O-methyl threonine (207) or O-methyl allothreonine (206), bulkier substituents led to a greater differentiation. […] Replacement of the Mep residue was generally less-well tolerated.

HL60, AML = test: as above; details: Homo sapiens, HL-60, 96 h, 96 hour exposure
Description: as §1, §2, §3, §4

L540cy, HL = test: as above; details: L540cy, 96 h, 96 hour exposure
Description: as §1, §2, §3, §4

HepG2, HCC = test: In vitro assays - TubOEt analogues, CellTiter-Glo growth inhibition; details: Homo sapiens, Table 3, lantern-made analogues >85% purity, 96 hour exposure
Description: as §1, §4

U266 MM = test: as above; details: Homo sapiens, U-266; Table 3; lantern-made analogues >85% purity, 96 hour exposure
Description: as §1, §4

Ramos, NHL = test: as above; details: Homo sapiens, Table 3, lantern-made analogues >85% purity, 96 hour exposure
Description: as §1, §4

[1] = Table 3, lantern-made analogues >85% purity

Row | SMILES | IC50 (L428, MDR + HL) | IC50 (Karpas299, ALCL) | IC50 (HL60/RV, MDR + AML; Table 2, free drug) | IC50 (HL60, AML; Table 2, free drug) | IC50 (L540cy, HL; Table 2, free drug) | IC50 (HL60/RV, MDR + AML; [1]) | IC50 (HL60, AML; [1]) | IC50 (L540cy, HL; [1]) | IC50 (HepG2, HCC) | IC50 (U266 MM) | IC50 (Ramos, NHL)
1 | CCC(=O)O[C@H](C[C@H](C(C)C)N(C)C(=O)[C@@H](NC(=O)[C@H]1CCCCN1C)[C@@H](C)CC)c1nc(C(=O)N[C@@H](Cc2ccccc2)C[C@H](C)C(=O)O)cs1 [Compound 133, (2S,4R)-4-(2-((1R,3R)-3-((2S,3S)—N,3-dimethyl-2-((R)-1-methylpiperidine-2-carboxamido)pentanamido)-4-methyl-1-(propionyloxy)pentyl)thiazole-4-carboxamido)-2-methyl-5-phenylpentanoic acid] | 0.04 nM | 0.02 nM | 1 nM | 0.1 nM | 0.06 nM |  |  |  |  |  | 
2 | CCO[C@H](C[C@H](C(C)C)N(C)C(=O)[C@@H](NC(=O)[C@H]1CCCCN1C)[C@H](C)CC)c1nc(C(=O)N[C@@H](Cc2ccccc2)C[C@H](C)C(=O)O)cs1 [Compound 209, (2S,4R)-4-(2-((1R,3R)-3-((2S,3R)—N,3-dimethyl-2-((R)-1-methylpiperidine-2-carboxamido)pentanamido)-1-ethoxy-4-methylpentyl)thiazole-4-carboxamido)-2-methyl-5-phenylpentanoic acid] |  |  |  |  |  | > 1000 nM | 15 nM | 12 nM | 50 nM | 8 nM | 7 nM
3 | CCO[C@H](C[C@H](C(C)C)N(C)C(=O)[C@@H](NC(=O)[C@H]1CCCCN1C)C(CC)CC)c1nc(C(=O)N[C@@H](Cc2ccccc2)C[C@H](C)C(=O)O)cs1 [Compound 203, (2S,4R)-4-(2-((1R,3R)-1-ethoxy-3-((S)-3-ethyl-N-methyl-2-((R)-1-methylpiperidine-2-carboxamido)pentanamido)-4-methylpentyl)thiazole-4-carboxamido)-2-methyl-5-phenylpentanoic acid] |  |  |  |  |  | 604 nM | 8 nM | 1 nM | 8 nM | 0.5 nM | 0.4 nM
4 | CCO[C@H](C[C@H](C(C)C)N(C)C(=O)[C@@H](NC(=O)[C@@H](C(C)C)N(C)C)[C@@H](C)CC)c1nc(C(=O)N[C@@H](Cc2ccccc2)C[C@H](C)C(=O)O)cs1 [Compound 220, (2S,4R)-4-(2-((3R,6S,9R,11R)-6-((S)-sec-butyl)-3,9-diisopropyl-2,8-dimethyl-4,7-dioxo-12-oxa-2,5,8-triazatetradecan-11-yl)thiazole-4-carboxamido)-2-methyl-5-phenylpentanoic acid] |  |  |  |  |  | > 1000 nM | 299 nM | 13 nM | 41 nM | 10 nM | 10 nM
5 | CCO[C@H](C[C@H](C(C)C)N(C)C(=O)[C@@H](NC(=O)[C@H]1CCCCN1C)[C@H](C)OC)c1nc(C(=O)N[C@@H](Cc2ccccc2)C[C@H](C)C(=O)O)cs1 [Compound 206, (2S,4R)-4-(2-((1R,3R)-1-ethoxy-3-((2S,3S)-3-methoxy-N-methyl-2-((R)-1-methylpiperidine-2-carboxamido)butanamido)-4-methylpentyl)thiazole-4-carboxamido)-2-methyl-5-phenylpentanoic acid] |  |  |  |  |  | > 1000 nM | 16 nM | 6 nM | 41 nM | 3 nM | 2 nM
6 | CCO[C@H](C[C@H](C(C)C)N(C)C(=O)[C@@H](NC(=O)[C@H]1CCCCN1C)[C@@H](C)OC)c1nc(C(=O)N[C@@H](Cc2ccccc2)C[C@H](C)C(=O)O)cs1 [Compound 207, (2S,4R)-4-(2-((1R,3R)-1-ethoxy-3-((2S,3R)-3-methoxy-N-methyl-2-((R)-1-methylpiperidine-2-carboxamido)butanamido)-4-methylpentyl)thiazole-4-carboxamido)-2-methyl-5-phenylpentanoic acid] |  |  |  |  |  | > 1000 nM | 9 nM | 6 nM | 46 nM | 2 nM | 2 nM
7 | CCO[C@H](C[C@H](C(C)C)N(C)C(=O)[C@@H](NC(=O)[C@H]1CCCCN1C)C1Cc2ccccc2C1)c1nc(C(=O)N[C@@H](Cc2ccccc2)C[C@H](C)C(=O)O)cs1 [Compound 208, (2S,4R)-4-(2-((1R,3R)-3-((S)-2-(2,3-dihydro-1H-inden-2-yl)-N-methyl-2-((R)-1-methylpiperidine-2-carboxamido)acetamido)-1-ethoxy-4-methylpentyl)thiazole-4-carboxamido)-2-methyl-5-phenylpentanoic acid] |  |  |  |  |  | > 1000 nM | 221 nM | 58 nM | 250 nM | 40 nM | 44 nM
8 | CCO[C@H](C[C@H](C(C)C)N(C)C(=O)[C@H](CC1CC1)NC(=O)[C@H]1CCCCN1C)c1nc(C(=O)N[C@@H](Cc2ccccc2)C[C@H](C)C(=O)O)cs1 [Compound 212, (2S,4R)-4-(2-((1R,3R)-3-((S)-3-cyclopropyl-N-methyl-2-((R)-1-methylpiperidine-2-carboxamido)propanamido)-1-ethoxy-4-methylpentyl)thiazole-4-carboxamido)-2-methyl-5-phenylpentanoic acid] |  |  |  |  |  | 810 nM | 8 nM | 2 nM | 19 nM | 1 nM | 1 nM
9 | CCO[C@H](C[C@H](C(C)C)N(C)C(=O)[C@@H](NC(=O)[C@H]1CCCCN1C)[C@H](C)OC(C)(C)C)c1nc(C(=O)N[C@@H](Cc2ccccc2)C[C@H](C)C(=O)O)cs1 [Compound 214, (2S,4R)-4-(2-((1R,3R)-3-((2S,3S)-3-(tert-butoxy)-N-methyl-2-((R)-1-methylpiperidine-2-carboxamido)butanamido)-1-ethoxy-4-methylpentyl)thiazole-4-carboxamido)-2-methyl-5-phenylpentanoic acid] |  |  |  |  |  | > 1000 nM | 190 nM | 30 nM | 91 nM | 22 nM | 20 nM
10 | CCO[C@H](C[C@H](C(C)C)N(C)C(=O)[C@H](CC1CCCCC1)NC(=O)[C@H]1CCCCN1C)c1nc(C(=O)N[C@@H](Cc2ccccc2)C[C@H](C)C(=O)O)cs1 [Compound 213, (2S,4R)-4-(2-((1R,3R)-3-((S)-3-cyclohexyl-N-methyl-2-((R)-1-methylpiperidine-2-carboxamido)propanamido)-1-ethoxy-4-methylpentyl)thiazole-4-carboxamido)-2-methyl-5-phenylpentanoic acid] |  |  |  |  |  | > 1000 nM | 42 nM | 20 nM | 70 nM | 9 nM | 10 nM
11 | CCO[C@H](C[C@H](C(C)C)N(C)C(=O)C(NC(=O)[C@H]1CCCCN1C)C12CC(F)(C1)C2)c1nc(C(=O)N[C@@H](Cc2ccccc2)C[C@H](C)C(=O)O)cs1 (stereo partly drawn) [Compound 211, (2S,4R)-4-(2-((1R,3R)-1-ethoxy-3-(2-(3-fluorobicyclo[1.1.1]pentan-1-yl)-N-methyl-2-((R)-1-methylpiperidine-2-carboxamido)acetamido)-4-methylpentyl)thiazole-4-carboxamido)-2-methyl-5-phenylpentanoic acid] |  |  |  |  |  | 224 nM | 5 nM | 2 nM | 14 nM | 2 nM | 1 nM
